In brackets after ≈: the same amount, converted by molar mass.

Broadly, the MIC50 is an inhibitory concentration at the 50% level, which refers to growth in some studies and to a panel of isolates in others. A high value points to weaker potency.

The test system of one data set is isogenic control (TIM10). Kind of data set: Yeast growth inhibition (MIC50), isogenic control (TIM10). As to conditions: Saccharomyces cerevisiae. In kind it is cell-based. As for the experimental part:
A primary screen was performed using freshly streaked tim10-1 diluted in YPD to an OD600 of approximately 0.0002 and kept on ice throughout the screening run. A Titertek multidrop (Huntsville, Ala.) was used dispense 40 μL of cell suspension to all wells of each clear 384-well plate (Greiner Bio One). After yeast suspension warmed to room temperature, a Biomek FX (Beckman Coulter) was used to pin transfer 0.5 μL of compound from 1 mM stock or DMSO to respective wells. Approximate screening concentration was 12.5 μM. All operations were performed by an automated plate scheduler to ensure consistency across the screening run. After completed compound transfer, all plates were incubated at 25° C. in a humidified incubator until the OD600 reached approximately 0.8 in the control wells; the control consisted of the tim10-1 mutant with the vehicle 1% DMSO. Each plate was shaken in a Beckman orbital shaker to resuspend settled cells, and the OD600 in each well was read by a Wallac Victor plate reader (Perkin Elmer). The top 600 growth inhibitory compounds were determined and assembled into two plates. Using a similar screening methodology, hit compounds were reconfirmed with the tim10-1 strain and growth inhibition was compared to the WT strain (TIM10) as well as the “rescued” strain (tim10-1 TIM10 that contained a copy of the wild-type TIM10 genes on a centromeric plasmid) strains. […]

The subject of data set [1] is tim10-1 tim9S suppressor strain. Kind of data set: Yeast growth inhibition (MIC50), tim10-1 tim9S suppressor strain. In kind it is cell-based. The settings on record: Saccharomyces cerevisiae; disrupted for prd5 and snq2.
The target in a further data set is T1, Tim9-Tim10 complex (Saccharomyces cerevisiae, UniProt O74700+P87108).
T1 construct: endogenous in cells; host or cells: isolated yeast mitochondria
Kind of data set: Tim9-Tim10 complex stability by blue native gel. In kind it is biochemical, yeast. The settings on record: 25 and 50 μM; BN gel. On the procedure: Respiration measurements were performed with an oxygen electrode using yeast mitochondria (M) from the tim10 tim9S suppressor strain in the presence of (A) 1% DMSO (vehicle control for drug) and (B) MitoBloCK-1. Respiration was initiated with NADH addition. 25 μM MitoBloCK-1 or 1% DMSO was added once steady-state respiration had been established. As a control, CCCP was added to uncouple the electron transport chain. (C) Respiration for series with DMSO or MitoBloCK-1 addition was quantitated (n=3). Bars represent mean rates with standard deviations as error bars. (D) Membrane potential (Δψ) of mitochondria measurements of purified mitochondria were performed with the fluorescent dye rhodamine 123 using a fluorimeter. Coupled mitochondria (M) sequestered and quenched the dye fluorescence; 1% DMSO was added to determine its effect on the […]. Collapse of the Δψ initiated by CCCP was included as a control. […] (H) As in 7B, MitoBloCK-1 (25 and 50 μM) was incubated with mitochondria and assembly of the Tim9-Tim10 complex was monitored by BN gels and immunoblotting with antibodies against Tim 10.
Steady-state levels of the small Tim complexes were analyzed from mitochondria isolates from TIA110,titn10-1, and titn10-1 titn9S strains following established methods (Murphy M P, et al., (2001), Mol Cell Biol 21:6132-6138). […]

Another data set has as its system Δpdr5Δsnq2 yeast strain. Kind of data set: Yeast growth inhibition (MIC50), Δpdr5Δsnq2 strain. In kind it is cell-based. As to conditions: Saccharomyces cerevisiae, ethanol-glycerol media, 25° C., 40 hours. On the procedure:
For MIC50 analysis in the yeast strains, serial dilution of MitoBloCK-6 (0.5 μl) was pinned into assay plate wells containing 50 μl of yeast (Table 2) in rich ethanol-glycerol media (starting OD600=0.0002). Plates were then incubated at 25° C. in a humidified chamber for 40 hours. Each plate was shaken in a Beckman orbital shaker to resuspend settled cells, and the OD600 in each well was read by a Wallac Victor plate reader (Perkin Elmer).

The test system of a further data set is zebrafish embryos. Kind of data set: Zebrafish embryo development. In kind it is in vivo. As for the experimental part: Zebrafish used for o-dianisidine staining of red blood cells in DMSO and MitoBloCK-6 treated fish were albino lines generated from crosses of TL and TU fish. Line AB were injected with the ALR morpholino. Lines were maintained in a 14-hr light/10-hr dark cycle and mated for one hour to obtain synchronized embryonic development. […] Following treatment, embryos were imaged using a Leica MZ16F fluorescent stereoscope (TexasRed filter set) at 5× magnification. […] Embryos were allowed to mature to 2 dpf and then imaged like the MitoBloCK-6 treated embryos; embryos were imaged at day 2 because of concerns with morpholino dilution. Images were resized to 300 dpi without resampling using Adobe Photoshop software.

T1 sequence (O74700 whole entry): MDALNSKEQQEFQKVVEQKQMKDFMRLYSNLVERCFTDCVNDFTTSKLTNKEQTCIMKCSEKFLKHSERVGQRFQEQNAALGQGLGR
T1 sequence (P87108 whole entry): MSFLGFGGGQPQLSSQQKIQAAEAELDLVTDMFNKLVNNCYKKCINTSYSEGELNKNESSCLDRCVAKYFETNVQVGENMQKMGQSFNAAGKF

For the compound `NC(=S)N/N=C/c1c(O)c(Br)cc2oc3c(c12)CCCC3` [MitoBloCK-1], the MIC50 is more than 200 µM in the data set with isogenic control (TIM10) and 10 µM (≈ 3.68 µg/mL) in data set [1]. Besides, on Tim9-Tim10 complex, the “steady-state stability of the Tim9-Tim10 complex” value is recorded as “did not alter steady-state stability of the Tim9-Tim10 complex”.

Turning to `Oc1c(Cl)cc(Cl)cc1/C=N/c1ccc(Nc2ccccc2)cc1` [MitoBloCK-6], the MIC50 in the data set on Δpdr5Δsnq2 yeast strain stood at 15.2 µM (≈ 5.43 µg/mL). Further, in the data set on zebrafish embryos (concentrations higher than 2.5 μM), the toxicity to fish result is listed as “toxic to the fish”. The compound also gave a decreased heart rate in the data set on zebrafish embryos (embryos treated with MitoBloCK-6 or ALR morpholino) of 50%.
